Laboratory results: US20230049952A1, “METHODS AND COMPOUNDS FOR RESTORING MUTANT P53 FUNCTION” (PMV Pharmaceuticals, Inc., priority 2020, published 2023)
Like-named read-outs stand apart in the source and are kept apart here.

What was measured:
[1] = metabolic stability in cryopreserved hepatocytes; assay type: in vitro ADME, cynomolgus monkey
Protocol: (§1) Mixed-gender human cryopreserved hepatocytes, male Sprague-Dawley rat cryopreserved hepatocytes, male CD-1 mouse cryopreserved hepatocytes, male beagle dog cryopreserved hepatocytes, and male cynomolgus monkey cryopreserved hepatocytes were used for the study. The hepatocytes were thawed, pooled into Krebs Henseleit buffer (KHB, pH 7.4), and kept on ice prior to the experiments. […] Each experiment was performed in triplicate. The final DMSO content in the incubation mixture was ≤0.1%. […] Positive controls, testosterone (1 μM) and 7-hydroxycoumarin (7-HC) (100 μM), were performed in parallel to confirm the activity of the hepatocytes. […] Aliquots of testosterone were withdrawn (n=1) at 0, 5, 15, 30, 60, and 120 minutes. Aliquots of 7-HC were withdrawn (n=1) at 0 and 15 minutes. The reaction was immediately terminated by adding three volumes of ice-cold MeCN containing IS. The samples were then mixed and spun by centrifuge to precipitate proteins. An aliquot of the supernatant was then diluted with water. Calibration standards for the analysis of 7-HC metabolites were prepared in matched matrix. […] All samples were analyzed by LC-MS/MS. The peak area response ratio (PARR) vs. IS was compared to the PARR at time 0 to determine the percent remaining at each time point. Half-lives and clearance values were calculated using GraphPad software, fitting to a single-phase exponential decay equation.
(§2) Mixed-gender human cryopreserved hepatocytes, male Sprague-Dawley rat cryopreserved hepatocytes, male CD-1 mouse cryopreserved hepatocytes, male beagle dog cryopreserved hepatocytes, and male cynomolgus monkey cryopreserved hepatocytes were thawed and pooled into KHB buffer (pH 7.4) and kept on ice prior to the experiments. […] Each experiment was performed in triplicate. The final DMSO content in the incubation mixture was ≤0.1%.
(§3) Positive controls, testosterone (1 μM) and 7-hydroxycoumarin (7-HC) (100 μM), were performed in parallel to confirm the activity of the hepatocytes. […] Aliquots of testosterone were withdrawn (n=1) at 0, 5, 15, 30, 60, and 120 minutes. Aliquots of 7-HC were withdrawn (n=1) at 0 and 15 minutes. The reaction was immediately terminated by adding three volumes of ice-cold MeCN containing IS. The samples were then mixed and spun by centrifuge to precipitate proteins. An aliquot of the supernatant was then diluted with water. Calibration standards for the analysis of 7-HC metabolites were prepared in matched matrix. […] All samples were analyzed by LC-MS/MS. Analytical conditions are outlined below. The peak area response ratio (PARR) vs. IS was compared to the PARR at time 0 to determine the percent remaining at each time point. Half-lives and clearance values were calculated using GraphPad software, fitting to a single-phase exponential decay equation.

[2] = metabolic stability in cryopreserved hepatocytes; assay type: in vitro ADME, rat
Protocol: as §1, §2, §3

[3] = metabolic stability in cryopreserved hepatocytes; assay type: in vitro ADME, mouse
Protocol: as §1, §2, §3

[4] = tested on: human hepatocytes; test: metabolic stability in cryopreserved hepatocytes; assay type: in vitro ADME
Protocol: as §1, §2, §3

[5] = metabolic stability in cryopreserved hepatocytes; assay type: in vitro ADME, dog
Protocol: Mixed-gender human cryopreserved hepatocytes, male Sprague-Dawley rat cryopreserved hepatocytes, male CD-1 mouse cryopreserved hepatocytes, male beagle dog cryopreserved hepatocytes, and male cynomolgus monkey cryopreserved hepatocytes were used for the study. The hepatocytes were thawed, pooled into Krebs Henseleit buffer (KHB, pH 7.4), and kept on ice prior to the experiments. […] Each experiment was performed in triplicate. The final DMSO content in the incubation mixture was ≤0.1%. […] Aliquots of testosterone were withdrawn (n=1) at 0, 5, 15, 30, 60, and 120 minutes. Aliquots of 7-HC were withdrawn (n=1) at 0 and 15 minutes. The reaction was immediately terminated by adding three volumes of ice-cold MeCN containing IS. The samples were then mixed and spun by centrifuge to precipitate proteins. An aliquot of the supernatant was then diluted with water. Calibration standards for the analysis of 7-HC metabolites were prepared in matched matrix. […] All samples were analyzed by LC-MS/MS. The peak area response ratio (PARR) vs. IS was compared to the PARR at time 0 to determine the percent remaining at each time point. Half-lives and clearance values were calculated using GraphPad software, fitting to a single-phase exponential decay equation.
as §2
Aliquots of testosterone were withdrawn (n=1) at 0, 5, 15, 30, 60, and 120 minutes. Aliquots of 7-HC were withdrawn (n=1) at 0 and 15 minutes. The reaction was immediately terminated by adding three volumes of ice-cold MeCN containing IS. The samples were then mixed and spun by centrifuge to precipitate proteins. An aliquot of the supernatant was then diluted with water. Calibration standards for the analysis of 7-HC metabolites were prepared in matched matrix. […] All samples were analyzed by LC-MS/MS. Analytical conditions are outlined below. The peak area response ratio (PARR) vs. IS was compared to the PARR at time 0 to determine the percent remaining at each time point. Half-lives and clearance values were calculated using GraphPad software, fitting to a single-phase exponential decay equation.

[6] = molecular target: T1, OCT2 (Homo sapiens, UniProt O15244); conditions: 2 min/5 μM
T1 sequence (O15244 1-555): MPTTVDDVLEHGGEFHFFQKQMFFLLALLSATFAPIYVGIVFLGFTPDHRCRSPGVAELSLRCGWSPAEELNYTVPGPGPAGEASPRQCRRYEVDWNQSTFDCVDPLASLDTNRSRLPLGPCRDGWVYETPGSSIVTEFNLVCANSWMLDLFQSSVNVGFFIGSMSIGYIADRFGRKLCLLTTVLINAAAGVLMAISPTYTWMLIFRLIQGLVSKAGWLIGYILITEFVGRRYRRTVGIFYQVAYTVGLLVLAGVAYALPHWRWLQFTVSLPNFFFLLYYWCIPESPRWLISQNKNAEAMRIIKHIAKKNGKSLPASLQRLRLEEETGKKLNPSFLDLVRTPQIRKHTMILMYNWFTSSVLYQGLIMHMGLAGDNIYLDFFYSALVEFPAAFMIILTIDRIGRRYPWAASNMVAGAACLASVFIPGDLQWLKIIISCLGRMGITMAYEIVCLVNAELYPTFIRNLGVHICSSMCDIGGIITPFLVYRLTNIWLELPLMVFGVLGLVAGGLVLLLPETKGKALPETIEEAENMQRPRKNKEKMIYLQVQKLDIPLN
Protocol: All experiments were conducted in duplicate (n=2). The cells were incubated for the indicated time in a humidified incubator (37° C. 5% CO2). […] The uptake incubation was stopped by two washes with ice-cold HBSSg.

[7] = molecular target: T2, CYP2C8 (Homo sapiens, UniProt P10632); test: in vitro; conditions: both, microsomes, pH 7.4
T2 sequence (P10632 1-490): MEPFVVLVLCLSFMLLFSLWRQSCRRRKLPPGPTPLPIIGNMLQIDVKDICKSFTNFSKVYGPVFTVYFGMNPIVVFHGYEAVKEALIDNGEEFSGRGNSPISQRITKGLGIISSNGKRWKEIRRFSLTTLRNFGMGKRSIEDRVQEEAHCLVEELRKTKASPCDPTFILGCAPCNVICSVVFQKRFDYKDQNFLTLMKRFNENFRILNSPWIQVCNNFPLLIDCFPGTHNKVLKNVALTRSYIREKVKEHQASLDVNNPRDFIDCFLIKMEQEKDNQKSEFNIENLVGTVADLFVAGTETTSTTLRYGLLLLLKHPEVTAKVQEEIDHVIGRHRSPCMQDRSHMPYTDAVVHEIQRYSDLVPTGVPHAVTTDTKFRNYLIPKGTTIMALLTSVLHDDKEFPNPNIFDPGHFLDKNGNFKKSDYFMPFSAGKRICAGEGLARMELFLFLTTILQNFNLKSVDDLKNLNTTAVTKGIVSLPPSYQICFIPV

[8] = molecular target: CYP2D6 (Homo sapiens, UniProt P10635); test: CYP inhibition in human liver microsomes; assay type: in vitro ADME; design: from tissue; host or cells: pooled human liver microsomes, 200 donors; conditions: both sexes, pooled human liver microsomes, pH 7.4, HLM, read-out: % of Control Enzyme Activity
[9] = molecular target: CYP2C9 (Homo sapiens, UniProt P11712); test: CYP inhibition in human liver microsomes; assay type: in vitro ADME; design: from tissue; host or cells: pooled human liver microsomes, 200 donors; conditions: both sexes, pooled human liver microsomes, pH 7.4, HLM, read-out: % of Control Enzyme Activity
Protocol: The HLMs were stored at −80° C. until use.
Negative (vehicle) controls were conducted without a test article.

[10] = Monkey cryopreserved hepatocytes, positive control 7-hydroxycoumarin 100 μM
[11] = Monkey hepatocytes, from 7-hydroxycoumarin (7-HC) 100 μM positive control
[12] = Rat cryopreserved hepatocytes, positive control 7-hydroxycoumarin 100 μM
[13] = Rat hepatocytes, from 7-hydroxycoumarin (7-HC) 100 μM positive control
[14] = Mouse cryopreserved hepatocytes, positive control 7-hydroxycoumarin 100 μM
[15] = Mouse hepatocytes, from 7-hydroxycoumarin (7-HC) 100 μM positive control
[16] = Human cryopreserved hepatocytes, positive control 7-hydroxycoumarin 100 μM
[17] = Human hepatocytes, from 7-hydroxycoumarin (7-HC) 100 μM positive control
[18] = Dog cryopreserved hepatocytes, positive control 7-hydroxycoumarin 100 μM
[19] = Dog hepatocytes, from 7-hydroxycoumarin (7-HC) 100 μM positive control

Sequence of CYP2C9 (P11712 whole entry): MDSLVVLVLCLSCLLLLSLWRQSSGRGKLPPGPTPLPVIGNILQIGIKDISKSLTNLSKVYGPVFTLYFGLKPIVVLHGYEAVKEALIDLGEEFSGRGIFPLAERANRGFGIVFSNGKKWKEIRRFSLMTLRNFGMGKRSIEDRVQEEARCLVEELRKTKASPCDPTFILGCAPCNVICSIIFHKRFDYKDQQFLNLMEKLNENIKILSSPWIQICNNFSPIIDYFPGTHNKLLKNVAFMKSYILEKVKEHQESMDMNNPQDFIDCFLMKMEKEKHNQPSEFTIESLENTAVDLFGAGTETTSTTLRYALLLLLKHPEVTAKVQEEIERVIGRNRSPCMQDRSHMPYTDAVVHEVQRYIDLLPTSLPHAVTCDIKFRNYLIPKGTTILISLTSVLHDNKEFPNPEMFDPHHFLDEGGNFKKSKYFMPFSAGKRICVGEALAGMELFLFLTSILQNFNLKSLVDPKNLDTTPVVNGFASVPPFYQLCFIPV
Sequence of CYP2D6 (P10635 whole entry): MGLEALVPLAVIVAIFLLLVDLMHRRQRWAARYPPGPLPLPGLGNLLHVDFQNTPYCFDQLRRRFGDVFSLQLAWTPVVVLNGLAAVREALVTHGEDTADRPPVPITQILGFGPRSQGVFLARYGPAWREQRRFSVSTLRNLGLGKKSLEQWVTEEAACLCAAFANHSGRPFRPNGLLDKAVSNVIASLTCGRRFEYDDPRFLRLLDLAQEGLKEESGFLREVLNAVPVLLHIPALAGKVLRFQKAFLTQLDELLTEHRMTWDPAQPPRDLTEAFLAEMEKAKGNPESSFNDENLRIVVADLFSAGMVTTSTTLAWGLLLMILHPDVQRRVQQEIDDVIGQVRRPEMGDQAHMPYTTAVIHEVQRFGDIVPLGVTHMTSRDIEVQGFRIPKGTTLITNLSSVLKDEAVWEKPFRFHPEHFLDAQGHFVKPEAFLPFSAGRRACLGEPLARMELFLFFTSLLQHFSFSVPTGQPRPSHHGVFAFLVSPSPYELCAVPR

SMILES	Formation Rate [1, 10]	Formation Rate [1, 11]	Formation Rate [2, 12]	Formation Rate [2, 13]	Formation Rate [3, 14]	Formation Rate [3, 15]	Formation Rate [4, 16]	Formation Rate [4, 17]	Formation Rate [5, 18]	Formation Rate [5, 19]	further results
O=C(O)[C@H]1O[C@@H](Oc2ccc3ccc(=O)oc3c2)[C@H](O)[C@@H](O)[C@@H]1O [Compound 7-HC-G]	279 pmol/min/10^6 cells	279 pmol/min/10^6 cells	253 pmol/min/10^6 cells	253 pmol/min/10^6 cells	234 pmol/min/10^6 cells	234 pmol/min/10^6 cells	316 pmol/min/10^6 cells	316 pmol/min/10^6 cells	301 pmol/min/10^6 cells	301 pmol/min/10^6 cells	
O=c1ccc2ccc(OS(=O)(=O)[O-])cc2o1.[K+] [Compound 7-HC-S]	13.3 pmol/min/10^6 cells	13.3 pmol/min/10^6 cells	34.0 pmol/min/10^6 cells	34 pmol/min/10^6 cells	6.36 pmol/min/10^6 cells	6.36 pmol/min/10^6 cells	7.74 pmol/min/10^6 cells	7.74 pmol/min/10^6 cells	24.5 pmol/min/10^6 cells	24.5 pmol/min/10^6 cells	
C[n+]1ccc(-c2ccccc2)cc1 [MPP, MPP+]											Substrate Assessment [6]: Positive (Influx Rate Ratio≥2.0: Positive); Influx Rate AVG ([6]; OCT2 cells): 403 pmol/minute/mg/protein; Influx Rate Ratio ([6]; OCT2 vs Vector Control): 16.6; Influx Rate AVG ([6]; Vector Control cells): 24.3 pmol/minute/mg/protein
CC(C)(O)c1ccccc1CC[C@@H](SCC1(CC(=O)O)CC1)c1cccc(/C=C/c2ccc3ccc(Cl)cc3n2)c1 [Montelukast, montelukast]											activity at 20 min, 0.123 µM [7]: 54%; activity at 20 min, 0.37 µM [7]: 26.8%; activity at 20 min, 3.33 µM [7]: 4.22%; activity at 20 min, 10 µM [7]: 2.17%
C=C[C@H]1C[N@@]2CC[C@H]1C[C@@H]2[C@@H](O)c1ccnc2ccc(OC)cc12 [Quinidine, quinidine]											activity at 20 min, 0.123 µM ([8]; 0.123 μM): 30.6%; activity at 20 min, 0.37 µM ([8]; 0.370 μM): 17.7%; activity at 20 min, 3.33 µM ([8]; 3.33 μM): 8.69%; activity at 20 min, 10 µM ([8]; 10.0 μM): 7.28%
Nc1ccc(S(=O)(=O)Nc2ccnn2-c2ccccc2)cc1 [Sulfaphenazole, sulfaphenazole]											activity at 20 min, 0.123 µM ([9]; 0.123 μM): 76.9%; activity at 20 min, 0.37 µM ([9]; 0.370 μM): 55.4%; activity at 20 min, 3.33 µM ([9]; 3.33 μM): 16.3%; activity at 20 min, 10 µM ([9]; 10.0 μM): 7.69%
